According to patent US8802597B2, “Herbicidal pyrimidines” (E I du Pont de Nemours and Company, priority 2003, dated 2014):
Where two headings read alike, the source gives them in different places.

Experiments:
Assay in all cases: Test C pre/postemergence
Assay type in all cases: in vivo
[1] = system: Surinam grass (Brachiaria decumbens); conditions: Urochloa decumbens; for pest or weed control at 125 g/ha: 125 g ai/ha; for pest or weed control at 500 g/ha: 500 g ai/ha; for pest or weed control at 62 g/ha: 62 g ai/ha; for pest or weed control at 250 g/ha: 250 g ai/ha
Procedure, shortened: (§1)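 Pre: seeds planted, sprayed same day. Post: 1- to 4-leaf plants (2–18 cm). Formulation: non-phytotoxic solvent + surfactant. Greenhouse 12–14 d; visual % control vs untreated, 0–100.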

[2] = system: cocklebur (Xanthium strumarium); conditions: Xanthium strumarium; for pest or weed control at 62 g/ha: 62 g ai/ha; for pest or weed control at 125 g/ha: 125 g ai/ha; for pest or weed control at 250 g/ha: 250 g ai/ha; for pest or weed control at 500 g/ha: 500 g ai/ha
Procedure, shortened: as §1

[3] = system: common (oilseed) sunflower (Helianthus annuus); conditions: Helianthus annuus, pre-emergence, Preemergence, read-out: Plant response rating, Sunflower
Procedure, shortened: as §1

[4] = system: corn (Zea mays); conditions: Zea mays; for Corn plant response rating (crop injury, 0 = no effect, 100 = complete kill) at 62 g/ha: 62 g ai/ha; for Corn plant response rating (crop injury, 0 = no effect, 100 = complete kill) at 125 g/ha: 125 g ai/ha; for Corn plant response rating (crop injury, 0 = no effect, 100 = complete kill) at 250 g/ha: 250 g ai/ha; for Corn plant response rating (crop injury, 0 = no effect, 100 = complete kill) at 500 g/ha: 500 g ai/ha
Procedure, shortened: as §1

[5] = system: crabgrass (Digitaria sanguinalis); conditions: Digitaria sanguinalis; for pest or weed control at 62 g/ha: 62 g ai/ha; for pest or weed control at 125 g/ha: 125 g ai/ha; for pest or weed control at 250 g/ha: 250 g ai/ha; for pest or weed control at 500 g/ha: 500 g ai/ha
Procedure, shortened: as §1

[6] = system: eastern black nightshade (Solanum ptycanthum); conditions: Solanum, pre-emergence, Preemergence, read-out: Plant response rating, Nightshade
Procedure, shortened: as §1

[7] = system: giant foxtail (Setaria faberii); conditions: Setaria faberi, post-emergence, Postemergence
Procedure, shortened: as §1

[8] = post-emergence, Postemergence, scale 0 to 100 (0 no effect, 100 complete control), read-out: Surinam Grass plant response rating
[9] = post-emergence, Postemergence, scale 0 to 100, read-out: Plant response rating, Surinam Grass
[10] = pre-emergence, Preemergence, scale 0 to 100, read-out: Plant response rating, Surinam Grass
[11] = post-emergence, Postemergence, scale 0 to 100 (0 no effect, 100 complete control), read-out: Cocklebur plant response rating
[12] = post-emergence, Postemergence, scale 0 to 100, read-out: Plant response rating, Cocklebur
[13] = pre-emergence, Preemergence, scale 0 to 100, read-out: Plant response rating, Cocklebur
[14] = 62 g ai/ha, scale 0 to 100, 0 no effect, 100 complete control
[15] = post-emergence, Postemergence, scale 0 to 100 (0 no effect, 100 complete control), read-out: Corn plant response rating
[16] = post-emergence, Postemergence, scale 0 to 100
[17] = pre-emergence, Preemergence, scale 0 to 100
[18] = post-emergence, Postemergence, scale 0 to 100 (0 no effect, 100 complete control), read-out: Crabgrass plant response rating
[19] = post-emergence, Postemergence, scale 0 to 100, read-out: Plant response rating, Crabgrass
[20] = pre-emergence, Preemergence, scale 0 to 100, read-out: Plant response rating, Crabgrass

Question: `CCOC(=O)c1nc(C2CC2)nc(N)c1Br` [Compound 1, ethyl 6-amino-5-bromo-2-cyclopropyl-4-pyrimidinecarboxylate] was tested. Which pest or weed control at 125 g/ha [1, 8] did it give?
Answer: 90%

Question: What about the pest or weed control at 500 g/ha [1, 9] of the same compound?
Answer: 95%

Question: What about the pest or weed control at 62 g/ha [1, 8] of the same compound?
Answer: 90%

Question: And the pest or weed control at 250 g/ha [1, 9]?
Answer: 90%

Question: What about the pest or weed control at 62 g/ha ([1]; pre-emergence, Preemergence, scale 0 to 100, 0 no effect, 100 complete control, read-out: Plant response rating, Surinam Grass) of the same compound?
Answer: 0%

Question: And the pest or weed control at 125 g/ha [1, 10]?
Answer: 35%

Question: And the pest or weed control at 250 g/ha [1, 10]?
Answer: 90%

Question: And the pest or weed control at 500 g/ha [1, 10]?
Answer: 90%

Question: What about the pest or weed control at 62 g/ha [2, 11] of the same compound?
Answer: 90%

Question: And the pest or weed control at 125 g/ha [2, 11]?
Answer: 100%

Question: And the pest or weed control at 250 g/ha [2, 12]?
Answer: 100%

Question: What about the pest or weed control at 500 g/ha [2, 12] of the same compound?
Answer: 100%

Question: What about the pest or weed control at 62 g/ha ([2]; pre-emergence, Preemergence, scale 0 to 100, 0 no effect, 100 complete control, read-out: Plant response rating, Cocklebur) of the same compound?
Answer: 90%

Question: What about the pest or weed control at 125 g/ha [2, 13] of the same compound?
Answer: 100%

Question: And the pest or weed control at 250 g/ha [2, 13]?
Answer: 100%

Question: And the pest or weed control at 500 g/ha [2, 13]?
Answer: 100%

Question: And the pest or weed control at 62 g/ha [3, 14]?
Answer: 80%

Question: And the pest or weed control at 125 g/ha ([3]; 125 g ai/ha, scale 0 to 100)?
Answer: 100%

Question: What about the pest or weed control at 250 g/ha ([3]; 250 g ai/ha, scale 0 to 100) of the same compound?
Answer: 100%

Question: What about the pest or weed control at 500 g/ha ([3]; 500 g ai/ha, scale 0 to 100) of the same compound?
Answer: 100%

Question: What about the Corn plant response rating (crop injury, 0 = no effect, 100 = complete kill) at 62 g/ha [4, 15] of the same compound?
Answer: 10%

Question: And the Corn plant response rating (crop injury, 0 = no effect, 100 = complete kill) at 125 g/ha [4, 15]?
Answer: 15%

Question: What about the Corn plant response rating (crop injury, 0 = no effect, 100 = complete kill) at 250 g/ha [4, 16] of the same compound?
Answer: 40%

Question: And the Corn plant response rating (crop injury, 0 = no effect, 100 = complete kill) at 500 g/ha [4, 16]?
Answer: 45%

Question: And the Corn plant response rating (crop injury, 0 = no effect, 100 = complete kill) at 62 g/ha ([4]; pre-emergence, Preemergence, scale 0 to 100, 0 no effect, 100 complete control, read-out: Plant response rating, Corn)?
Answer: 0%

Question: And the Corn plant response rating (crop injury, 0 = no effect, 100 = complete kill) at 125 g/ha ([4]; pre-emergence, Preemergence, scale 0 to 100, read-out: Plant response rating, Corn)?
Answer: 0%

Question: What about the Corn plant response rating (crop injury, 0 = no effect, 100 = complete kill) at 250 g/ha [4, 17] of the same compound?
Answer: 50%

Question: What about the Corn plant response rating (crop injury, 0 = no effect, 100 = complete kill) at 500 g/ha [4, 17] of the same compound?
Answer: 70%

Question: And the pest or weed control at 62 g/ha [5, 18]?
Answer: 30%

Question: And the pest or weed control at 125 g/ha [5, 18]?
Answer: 85%

Question: And the pest or weed control at 250 g/ha [5, 19]?
Answer: 85%

Question: What about the pest or weed control at 500 g/ha [5, 19] of the same compound?
Answer: 90%

Question: What about the pest or weed control at 62 g/ha ([5]; pre-emergence, Preemergence, scale 0 to 100, 0 no effect, 100 complete control, read-out: Plant response rating, Crabgrass) of the same compound?
Answer: 10%

Question: And the pest or weed control at 125 g/ha [5, 20]?
Answer: 60%

Question: What about the pest or weed control at 250 g/ha [5, 20] of the same compound?
Answer: 90%

Question: What about the pest or weed control at 500 g/ha [5, 20] of the same compound?
Answer: 95%

Question: And the pest or weed control at 62 g/ha [6, 14]?
Answer: 100%

Question: And the pest or weed control at 125 g/ha ([6]; 125 g ai/ha, scale 0 to 100)?
Answer: 100%

Question: What about the pest or weed control at 250 g/ha ([6]; 250 g ai/ha, scale 0 to 100) of the same compound?
Answer: 100%

Question: And the pest or weed control at 500 g/ha ([6]; 500 g ai/ha, scale 0 to 100)?
Answer: 100%

Question: What about the pest or weed control at 125 g/ha ([7]; 125 g ai/ha, scale 0 to 100 (0 no effect, 100 complete control), read-out: Foxtail, Giant plant response rating) of the same compound?
Answer: 65%

Question: What about the pest or weed control at 500 g/ha ([7]; 500 g ai/ha, scale 0 to 100, read-out: Plant response rating, Foxtail, Giant) of the same compound?
Answer: 90%

Question: And the pest or weed control at 62 g/ha ([7]; 62 g ai/ha, scale 0 to 100 (0 no effect, 100 complete control), read-out: Foxtail, Giant plant response rating)?
Answer: 40%

Question: And the pest or weed control at 250 g/ha ([7]; 250 g ai/ha, scale 0 to 100, read-out: Plant response rating, Foxtail, Giant)?
Answer: 80%
